The source of these data is publication PMC11207335, “In Vitro Metabolism and Transport Characteristics of Zastaprazan” (Pharmaceutics, 2024).

The nature of data set [1]: Metabolic stability of JP-1366 in human hepatocytes. Type of data set: in vitro ADME. The settings on record: cryopreserved human hepatocytes. As to the method: (§1) According to the manufacturer’s protocol, cryopreserved human, dog, monkey, mouse, and rat hepatocytes were purified and recovered. […] The metabolic reaction in each sample well was quenched by adding 120 μL of ice-cold acetonitrile.
(§2) Log-transformed relative responses of JP-1366 were plotted against incubation time, thereby obtaining the elimination slope (k) from the linear regression analysis. […] (1) t1 /2(min)=ln2/kelimination slope (2) Clint(mL/min/kg)=ln2/t1/2×mL incubation/hepatocyte (10^6 cells)×B×10^6 cells/g liver×A g liver/kg BW (3) Clhep(mL/min/kg)=Qh×Clint/Qh+Clint (4) HER=Clhep/Qh
(§3) Here, A means the liver weight parameters and has values of 25.7, 32, 30, 87.5, and 40; B means the cell number parameters and has values of 139, 215, 120, 135, and 117; Qh represents hepatic blood flow and has values of 20.7, 30.9, 43.6, 90, and 55.2 mL/min/kg for humans, dogs, monkeys, mice, and rats, respectively. Hepatic extraction ratios (HERs) of ≤0.25, 0.25–0.75, and ≥0.75 were regarded as low, moderate, and high, respectively.

Data set [2] relates to human hepatocytes. The description is as above. Type of data set: in vitro ADME. To be noted: human hepatocytes. As to the method: as §1, §2, §3
A short description of data set [3]: Metabolic stability of JP-1366 in rat hepatocytes. The data set is classed as in vitro ADME. The settings on record: cryopreserved rat hepatocytes. The procedure:
as §1, §2, §3

In data set [4] the test system is rat hepatocytes. In words: Metabolic stability of JP-1366 in rat hepatocytes. Type of data set: in vitro ADME. To be noted: rat hepatocytes. As to the method:
as §1, §2, §3

In data set [5] the test system is gastric pH. To be noted: cited from earlier work; for % time pH > 4.0 over a period of 24 h: 40 mg dose group, healthy subjects.
For data set [6] the following is noted: cited from earlier work.
The test system of data set [7] is GERD lesion. The settings on record: rats, compared with vonoprazan; cited from earlier work.
Data set [8] relates to human, dog, monkey, mouse, and rat hepatocytes. In words: In vitro metabolic profiling of JP-1366 in hepatocytes. Type of data set: in vitro ADME. To be noted: 10 µM JP-1366, 60 min; H human, D dog, Mk monkey, M mouse, R rat. As to the method: Cryopreserved human, dog, monkey, mouse, and rat hepatocytes were purified and recovered according to the manufacturer’s protocol. […] The metabolic reaction in each sample well was quenched by adding 120 μL of ice-cold acetonitrile.
MS spectra were obtained in positive-ion mode using electrospray ionization under optimized conditions as follows: capillary temperature, 350 °C; sheath gas flow rate, 40 (arbitrary units); aux gas flow rate, 10 (arbitrary units); and aux gas heater temperature, 350 °C. Full MS scan with data-dependent MS/MS was performed from m/z 100 to m/z 1000.

Data set [9] addresses T1, human cDNA-expressed CYP2C9 (Homo sapiens, UniProt P11712).
T1 construct: purchased Corning Life Sciences
In words: Enzyme kinetics of JP-1366 metabolism in cDNA-expressed CYP2C9. The data set is classed as in vitro ADME. As to the method:
(§4) The reaction was initiated by adding 5 μL of NADPH-generating system in triplicate, and the mixture was further incubated for 30 min at 37 °C in a shaking water bath.
(§5) The concentrations of the metabolites were quantitated, and their formation rates (pmol/mg protein/min) were calculated by dividing the amounts of metabolites formed from the incubation with human liver microsomes and human cDNA-expressed CYP or UGT enzymes by the incubation time.

Data set [10] addresses T2, human cDNA-expressed CYP2C19 (Homo sapiens, UniProt P33261).
T2 construct: purchased Corning Life Sciences
Kind of data set: Enzyme kinetics of JP-1366 metabolism in cDNA-expressed CYP2C19. Type of data set: in vitro ADME. As to the method:
as §4, §5

Data set [11] concerns the target T3, human cDNA-expressed CYP3A4 (Homo sapiens, UniProt P08684).
T3 construct: purchased Corning Life Sciences
Kind of data set: Enzyme kinetics of JP-1366 metabolism in cDNA-expressed CYP3A4. Type of data set: in vitro ADME. As to the method: as §4, §5

Data set [12] addresses T4, human cDNA-expressed CYP3A5 (Homo sapiens, UniProt P20815).
T4 construct: purchased Corning Life Sciences
Kind of data set: Enzyme kinetics of JP-1366 metabolism in cDNA-expressed CYP3A5. The data set is classed as in vitro ADME. As to the method: as §4, §5

For data set [13], the target named is H^+/K^+-ATPase (Homo sapiens, UniProt P20648). To be noted: read-out: IC50 for the H^+/K^+-ATPase inhibition; cited from earlier work.
Chain of H^+/K^+-ATPase (P20648 whole entry): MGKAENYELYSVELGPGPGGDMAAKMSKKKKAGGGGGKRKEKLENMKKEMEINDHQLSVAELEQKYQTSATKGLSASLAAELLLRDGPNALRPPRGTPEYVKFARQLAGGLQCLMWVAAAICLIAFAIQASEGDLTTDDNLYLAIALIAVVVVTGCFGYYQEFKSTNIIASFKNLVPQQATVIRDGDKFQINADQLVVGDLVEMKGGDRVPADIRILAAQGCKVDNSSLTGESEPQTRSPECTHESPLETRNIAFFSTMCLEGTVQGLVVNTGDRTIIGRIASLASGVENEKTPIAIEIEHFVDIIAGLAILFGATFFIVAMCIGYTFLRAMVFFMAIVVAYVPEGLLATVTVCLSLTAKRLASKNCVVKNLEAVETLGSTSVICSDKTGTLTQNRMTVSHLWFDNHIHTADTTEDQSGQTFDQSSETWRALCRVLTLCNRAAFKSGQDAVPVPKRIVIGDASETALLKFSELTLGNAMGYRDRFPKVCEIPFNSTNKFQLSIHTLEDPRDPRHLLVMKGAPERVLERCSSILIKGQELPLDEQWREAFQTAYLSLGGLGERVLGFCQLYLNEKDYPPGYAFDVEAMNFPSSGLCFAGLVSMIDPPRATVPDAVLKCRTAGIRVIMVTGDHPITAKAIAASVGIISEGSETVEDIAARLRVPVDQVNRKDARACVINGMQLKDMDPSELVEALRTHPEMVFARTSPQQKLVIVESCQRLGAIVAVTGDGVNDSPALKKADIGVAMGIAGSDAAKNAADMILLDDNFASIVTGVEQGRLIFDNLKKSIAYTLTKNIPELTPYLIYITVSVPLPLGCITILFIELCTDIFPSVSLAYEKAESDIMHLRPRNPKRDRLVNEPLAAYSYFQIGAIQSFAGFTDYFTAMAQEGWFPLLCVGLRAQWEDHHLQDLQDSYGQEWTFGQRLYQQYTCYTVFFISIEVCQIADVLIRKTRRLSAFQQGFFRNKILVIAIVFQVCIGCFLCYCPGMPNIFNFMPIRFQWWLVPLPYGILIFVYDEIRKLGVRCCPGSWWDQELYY
Chain of H^+/K^+-ATPase (P51164 whole entry partner): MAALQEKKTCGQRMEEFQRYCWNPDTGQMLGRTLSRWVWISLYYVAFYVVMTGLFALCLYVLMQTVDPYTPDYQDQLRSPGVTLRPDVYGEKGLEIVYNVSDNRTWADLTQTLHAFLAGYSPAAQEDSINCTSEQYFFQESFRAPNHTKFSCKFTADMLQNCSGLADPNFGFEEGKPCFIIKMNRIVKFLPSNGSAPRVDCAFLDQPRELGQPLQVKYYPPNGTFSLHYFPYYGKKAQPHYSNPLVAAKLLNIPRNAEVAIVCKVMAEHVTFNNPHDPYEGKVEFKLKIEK
Setting [14] is: formation of the labelled metabolite from JP-1366, CYP2C9.
[15] abbreviates: formation of the labelled metabolite from JP-1366, CYP2C19.
[16] abbreviates: formation of the labelled metabolite from JP-1366, CYP3A4.
Setting [17] is: formation of the labelled metabolite from JP-1366, CYP3A5.

Structures are written as SMILES. Where “and” joins values, the source holds several entries; their conditions need not be identical. Equal values may be shown once. Read-outs that look alike come from different tables or passages of the source.

T1 sequence (P11712 whole entry): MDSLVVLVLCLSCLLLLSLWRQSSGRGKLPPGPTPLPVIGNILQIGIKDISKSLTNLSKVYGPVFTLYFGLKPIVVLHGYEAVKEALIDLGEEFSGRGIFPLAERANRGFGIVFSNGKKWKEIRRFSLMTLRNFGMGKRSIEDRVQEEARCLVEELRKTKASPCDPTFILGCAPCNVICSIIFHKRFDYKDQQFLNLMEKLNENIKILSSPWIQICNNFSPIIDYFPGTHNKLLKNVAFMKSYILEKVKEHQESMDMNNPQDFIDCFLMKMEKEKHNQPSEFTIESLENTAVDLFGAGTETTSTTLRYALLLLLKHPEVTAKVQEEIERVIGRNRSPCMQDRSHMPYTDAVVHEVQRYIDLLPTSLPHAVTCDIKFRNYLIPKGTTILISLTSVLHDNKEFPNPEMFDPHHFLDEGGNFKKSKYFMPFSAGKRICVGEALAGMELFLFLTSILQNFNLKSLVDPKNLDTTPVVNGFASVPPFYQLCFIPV
T4 sequence (P20815 whole entry): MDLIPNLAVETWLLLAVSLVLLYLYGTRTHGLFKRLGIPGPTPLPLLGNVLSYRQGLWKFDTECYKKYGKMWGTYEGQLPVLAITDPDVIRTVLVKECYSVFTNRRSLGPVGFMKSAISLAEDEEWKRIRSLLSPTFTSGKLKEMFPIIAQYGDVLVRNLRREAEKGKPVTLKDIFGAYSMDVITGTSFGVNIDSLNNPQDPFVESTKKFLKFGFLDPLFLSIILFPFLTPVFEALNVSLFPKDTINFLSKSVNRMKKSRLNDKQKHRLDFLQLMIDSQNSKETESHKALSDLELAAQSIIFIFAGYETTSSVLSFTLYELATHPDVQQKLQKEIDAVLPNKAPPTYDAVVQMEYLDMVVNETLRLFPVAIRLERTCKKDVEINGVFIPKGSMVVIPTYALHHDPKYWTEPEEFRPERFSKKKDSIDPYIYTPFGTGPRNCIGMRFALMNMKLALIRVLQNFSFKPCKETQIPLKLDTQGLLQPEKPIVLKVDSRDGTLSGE
T2 sequence (P33261 whole entry): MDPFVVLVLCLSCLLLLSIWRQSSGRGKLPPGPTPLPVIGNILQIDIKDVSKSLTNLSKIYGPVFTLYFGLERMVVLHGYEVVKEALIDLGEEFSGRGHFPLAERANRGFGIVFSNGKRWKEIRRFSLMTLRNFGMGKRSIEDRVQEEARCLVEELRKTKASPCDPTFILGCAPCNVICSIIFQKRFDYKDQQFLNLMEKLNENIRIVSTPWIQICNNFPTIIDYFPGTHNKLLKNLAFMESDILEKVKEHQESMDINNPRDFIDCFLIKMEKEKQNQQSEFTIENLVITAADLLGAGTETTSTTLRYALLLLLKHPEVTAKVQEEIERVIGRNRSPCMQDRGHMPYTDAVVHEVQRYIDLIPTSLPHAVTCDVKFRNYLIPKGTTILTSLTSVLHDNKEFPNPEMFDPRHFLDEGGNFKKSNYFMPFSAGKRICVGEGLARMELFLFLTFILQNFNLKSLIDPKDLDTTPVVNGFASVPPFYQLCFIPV
T3 sequence (P08684 whole entry): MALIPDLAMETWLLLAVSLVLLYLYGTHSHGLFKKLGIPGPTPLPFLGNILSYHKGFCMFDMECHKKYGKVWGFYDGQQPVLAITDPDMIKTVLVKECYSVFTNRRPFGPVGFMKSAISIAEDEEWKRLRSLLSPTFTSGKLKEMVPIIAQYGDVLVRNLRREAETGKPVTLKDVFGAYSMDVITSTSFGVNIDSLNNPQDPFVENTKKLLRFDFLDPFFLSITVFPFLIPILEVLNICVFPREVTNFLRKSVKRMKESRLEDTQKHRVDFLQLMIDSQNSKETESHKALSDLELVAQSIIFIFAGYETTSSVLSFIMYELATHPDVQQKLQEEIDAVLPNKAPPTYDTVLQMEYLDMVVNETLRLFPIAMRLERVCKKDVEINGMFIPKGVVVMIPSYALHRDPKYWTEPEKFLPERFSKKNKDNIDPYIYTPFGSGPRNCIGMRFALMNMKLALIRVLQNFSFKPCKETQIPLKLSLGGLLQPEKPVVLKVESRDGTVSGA

Turning to `Cc1cccc(C)c1CNc1cc(C(=O)N2CCC2)cn2c(C)c(C)nc12` [JP-1366, 1-azetidinyl(8-(((2,6-dimethylphenyl)methyl)amino)-2,3-dimethylimidazo(1,2-a)pyridin-6-yl)methanone], the CLint scaled at 1 µM in data set [1] (human hepatocytes, scaled with physiological parameters) came out at 77.5 mL/min/kg; in data set [3] (rat hepatocytes, scaled with physiological parameters), 138 mL/min/kg. In addition, the half-life at 1 µM in data set [1] (human) was 63.9 min; in data set [3] (rat), 47.1 min. Besides, the CLhep in data set [2] is reported as 16.3 mL/min/kg; in [4] it was 39.4 mL/min/kg. In addition, the HER is on record as 0.79 in [2] and 0.71 in data set [4]. Besides, the “% time pH > 4.0 over a period of 24 h” value in data set [5] (MAD) is 89.28 ± 9.12% and 89.28% ± 9.12%; in data set [5] (SAD), 91.84% ± 4.06%. In data set [5] (repeated 40 mg dose), the “% time pH > 4 at nighttime” value is on record as 89.28% ± 9.12%. The safety and tolerability result in data set [6] (SAD up to 60 mg, MAD up to 40 mg, healthy male Korean subjects) was “safe and well tolerated”. Further, the “dose-normalized AUC among genetic variants of CYP2C19, CYP3A5, CYP2D6, UGT1A1, and UGT2B17” value in data set [6] is on record as “not significantly different”. In data set [7], the “GERD lesion inhibition rates” value is recorded as “greater GERD lesion inhibition rates”.
For `Cc1cccc(CO)c1CNc1cc(C(=O)N2CCC2)cn2c(C)c(C)nc12` [M1, azetidin-1-yl(8-((2-(hydroxymethyl)-6-methyl-benzyl)amino)-2,3-dimethylimidazo[1,2-a]pyridin-6-yl)methanone], the “Hepatocytes (species in which the metabolite was found)” value in data set [8] is on record as “H, D, Mk, M, R”. In addition, the CLint was 0.14 μL/min/pmol CYP in data set [9] (setting [14]), 0.068 μL/min/pmol CYP in [10] (setting [15]), 0.35 μL/min/pmol CYP in data set [11] (setting [16]) and 0.33 μL/min/pmol CYP in data set [12] (setting [17]). Also, the “n (Hill coefficient)” value in data set [9] (setting [14]) is 1.2; in data set [10] (setting [15]), 1.6; in data set [11] (setting [16]) it was 2.9; in data set [12] (setting [17]), 1.5. Besides, the “Contribution (%)” value is 10.3% in data set [9] (relative contribution of CYP2C9 to formation of the labelled metabolite), 0.1% in [10] (relative contribution of CYP2C19 to formation of the labelled metabolite), 17.3% in data set [11] (relative contribution of CYP3A4 to formation of the labelled metabolite) and 68.6% in data set [12] (relative contribution of CYP3A5 to formation of the labelled metabolite). Further, the IC50 in [13] is 66.5 nM.

The CLint scaled is a measure of how fast metabolising enzymes remove a compound, apart from limits set by blood flow. Usually half-life stands for the time in which the quantity being followed falls by half. Low readings indicate fast loss, high ones slow loss.
